# Test results reported in ChEMBL document CHEMBL4368855, “Novel tricyclic glycal-based TRIB1 inducers that reprogram LDL metabolism in hepatic cells” (Medchemcomm, 2018).
# The source made the active and inactive calls. The calls are words filed in the database; no cut-off is given here.
# How the values were obtained:
# HepG2 [1] = assay: Up regulation of LDLR expression in human HepG2 cells at 10 uM measured after 6 hrs in presence of JAK inhibitor CP-690550 by qRT-PCR analysis; assay type: functional, cell-based
# [2] = Apparent volume of distribution in C57BL/6 mouse plasma at 10 mg/kg, ip administered as single dose by mass spectrometry; assay type: ADME, organism-based; settings: in vivo
# HepG2 [3] = assay: Down regulation of APOC3 gene expression in human HepG2 cells at 1 uM measured after 24 hrs by transcriptional profiling analysis; assay type: functional, cell-based
# HepG2 [4] = assay: Up regulation of JUN expression in human HepG2 cells at 1 uM measured after 6 hrs by transcriptional profiling analysis; assay type: functional, cell-based
# [5] = Half life in C57BL/6 mouse plasma at 10 mg/kg, ip administered as single dose by mass spectrometry; assay type: ADME, organism-based
# [6] = Tmax in C57BL/6 mouse liver at 10 mg/kg, ip administered as single dose by mass spectrometry; assay type: ADME, organism-based
# HepG2 [7] = assay: Up regulation of LDLR gene expression in human HepG2 cells cultured in cholesterol depleted media at 2.5 uM after 6 hrs by qRT-PCR analysis; assay type: functional, cell-based
# HepG2 [8] = assay: Induction of LDL uptake in human HepG2 cells preincubated for 20 hrs followed by BODIPY-FL-LDL addition and measured after 5 hrs by Hoechst 33342 staining based microscopic analysis; assay type: functional, cell-based
# HepG2 [9] = assay: Up regulation of LDLR expression in human HepG2 cells at 10 uM measured after 6 hrs in presence of MEK inhibitor U0126 by qRT-PCR analysis; assay type: functional, cell-based
# HepG2 [10] = assay: Down regulation of MTTP gene expression in human HepG2 cells at 1 uM measured after 24 hrs by transcriptional profiling analysis; assay type: functional, cell-based
# [11] = Cmax in C57BL/6 mouse plasma at 10 mg/kg, ip administered as single dose by mass spectrometry; assay type: ADME, organism-based; parameters: dose 10 mg/kg, route intraperitoneal
# HepG2 [12] = assay: Induction of TRIB1 expression in human HepG2 cells measured after overnight incubation by qRT-PCR analysis; assay type: functional, cell-based
# HepG2 [13] = assay: Up regulation of TRIB1 gene expression in human HepG2 cells measured after 6 hrs by qRT-PCR analysis; assay type: functional, cell-based; settings: HepG2, 6 h
# [14] = AUC (infinity) in C57BL/6 mouse plasma at 10 mg/kg, ip administered as single dose by mass spectrometry; assay type: ADME, organism-based; parameters: dose 10 mg/kg, route intraperitoneal, time infinity; settings: in vivo
# HepG2 [15] = assay: Induction of TRIB1 expression in human HepG2 cells assessed as increase in ApoB secretion measured after 24 hrs by ELISA; assay type: functional, cell-based
# HepG2 [16] = assay: Down regulation of PCSK9 gene expression in human HepG2 cells measured after 24 hrs by qRT-PCR analysis; assay type: functional, cell-based; settings: HepG2, 24 h
# HepG2 [17] = assay: Up regulation of ZFP36 expression in human HepG2 cells at 1 uM measured after 6 hrs by transcriptional profiling analysis; assay type: functional, cell-based
# HepG2 [18] = assay: Up regulation of JUNB expression in human HepG2 cells at 1 uM measured after 6 hrs by transcriptional profiling analysis; assay type: functional, cell-based
# HepG2 [19] = assay: Effect on SREBF2 expression in human HepG2 cells at 1 uM measured after 6 to 24 hrs by transcriptional profiling analysis; assay type: functional, cell-based
# HepG2 [20] = assay: Up regulation of LDLR expression in human HepG2 cells at 1 uM measured after 6 to 24 hrs by transcriptional profiling analysis; assay type: functional, cell-based
# [21] = Clearance in C57BL/6 mouse plasma at 10 mg/kg, ip administered as single dose by mass spectrometry; assay type: ADME, organism-based
# HepG2 [22] = assay: Up regulation of LDLR expression in human HepG2 cells after 24 hrs by ELISA; assay type: functional, cell-based
# [23] = Stability in mouse liver microsomes assessed as parent compound remaining at 1 uM incubated for 60 mins under shaking condition by UPLC/MS analysis; assay type: ADME, Microsome; settings: read-out: Stability
# HepG2 [24] = assay: Down regulation of MVK gene expression in human HepG2 cells at 1 uM measured after 24 hrs by transcriptional profiling analysis; assay type: functional, cell-based
# HepG2 [25] = assay: Up regulation of LDLR gene expression in human HepG2 cells measured after 6 hrs by qRT-PCR analysis relative to control; assay type: functional
# HepG2 [26] = assay: Up regulation of DUSP1 expression in human HepG2 cells at 1 uM measured after 6 hrs by transcriptional profiling analysis; assay type: functional, cell-based
# HepG2 [27] = assay: Effect on SREBF1 expression in human HepG2 cells at 1 uM measured after 6 to 24 hrs by transcriptional profiling analysis; assay type: functional, cell-based
# [28] = Unbound fraction in C57BL/6 mouse liver at 10 mg/kg, ip administered as single dose by mass spectrometry; assay type: ADME, organism-based
# [29] = AUC (infinity) in C57BL/6 mouse liver at 10 mg/kg, ip administered as single dose by mass spectrometry; assay type: ADME, organism-based; parameters: dose 10 mg/kg, route intraperitoneal, time infinity; settings: in vivo
# HepG2 [30] = assay: Induction of TRIB1 expression in human HepG2 cells assessed as reduction in 13[C3]-D5-glycerol incorporation into C48:2 triglyceride at 2 uM preincubated for 24 hrs followed by 13[C3]-D5-glycerol addition and measured by LC/MS analysis; assay type: functional, cell-based
# [31] = target: T1, Mitogen-activated protein kinase; ERK1/ERK2 (Homo sapiens) (UniProt P27361+P28482); assay: Activation of ERK1/2 phosphorylation in human HepG2 cells assessed as ratio of phosphorylated ERK1/2 to total ERK1/2 at 2 uM after 6 hrs by Western blot analysis relative to control; assay type: cell-based
# T1 sequence (P27361 whole entry, looked up): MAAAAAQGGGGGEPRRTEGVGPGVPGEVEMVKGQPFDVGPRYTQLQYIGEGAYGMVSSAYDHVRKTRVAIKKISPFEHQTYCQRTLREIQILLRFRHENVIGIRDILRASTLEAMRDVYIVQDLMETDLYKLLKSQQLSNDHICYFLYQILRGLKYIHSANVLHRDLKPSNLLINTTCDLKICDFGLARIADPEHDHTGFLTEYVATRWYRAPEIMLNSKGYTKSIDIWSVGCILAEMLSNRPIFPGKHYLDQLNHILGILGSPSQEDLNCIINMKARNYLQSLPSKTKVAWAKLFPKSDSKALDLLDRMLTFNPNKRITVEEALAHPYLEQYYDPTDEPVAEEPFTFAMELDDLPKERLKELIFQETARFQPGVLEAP
# T1 sequence (P28482 whole entry, looked up): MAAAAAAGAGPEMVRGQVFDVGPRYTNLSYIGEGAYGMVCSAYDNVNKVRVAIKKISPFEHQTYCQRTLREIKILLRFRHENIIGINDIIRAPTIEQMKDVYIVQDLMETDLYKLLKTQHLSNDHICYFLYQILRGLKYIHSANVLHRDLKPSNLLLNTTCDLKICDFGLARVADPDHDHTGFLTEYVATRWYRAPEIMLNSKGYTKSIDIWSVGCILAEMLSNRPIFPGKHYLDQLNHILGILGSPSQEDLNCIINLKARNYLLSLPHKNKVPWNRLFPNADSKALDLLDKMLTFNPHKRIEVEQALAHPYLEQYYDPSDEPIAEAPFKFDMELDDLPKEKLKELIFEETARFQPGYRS
# HepG2 [32] = assay: Up regulation of LDLR gene expression in human HepG2 cells measured after 6 hrs by qRT-PCR analysis; assay type: functional, cell-based; settings: HepG2, 6 h
# [33] = target: T1, Mitogen-activated protein kinase; ERK1/ERK2 (Homo sapiens); assay: Activation of ERK1/2 phosphorylation in human HepG2 cells assessed as ratio of phosphorylated ERK1/2 to total ERK1/2 at 2 uM after 30 mins by Western blot analysis relative to control; assay type: cell-based
# [34] = Apparent volume of distribution in C57BL/6 mouse liver at 10 mg/kg, ip administered as single dose by mass spectrometry; assay type: ADME, organism-based; settings: in vivo
# HepG2 [35] = assay: Induction of TRIB1 expression in human HepG2 cells assessed as reduction in 13[C3]-D5-glycerol incorporation into C50:2 triglyceride at 2 uM preincubated for 24 hrs followed by 13[C3]-D5-glycerol addition and measured by LC/MS analysis; assay type: functional, cell-based
# HepG2 [36] = assay: Down regulation of PCSK9 gene expression in human HepG2 cells cultured in cholesterol depleted media at 2.5 uM after 24 hrs by qRT-PCR analysis; assay type: functional, cell-based
# HepG2 [37] = assay: Down regulation of MOGAT2 gene expression in human HepG2 cells at 1 uM measured after 24 hrs by transcriptional profiling analysis; assay type: functional, cell-based
# HepG2 [38] = assay: Up regulation of ATF3 expression in human HepG2 cells at 1 uM measured after 6 hrs by transcriptional profiling analysis; assay type: functional, cell-based
# HepG2 [39] = assay: Down regulation of ACAT2 gene expression in human HepG2 cells at 1 uM measured after 24 hrs by transcriptional profiling analysis; assay type: functional, cell-based
# HepG2 [40] = assay: Down regulation of HMGCR gene expression in human HepG2 cells at 1 uM measured after 24 hrs by transcriptional profiling analysis; assay type: functional, cell-based
# HepG2 [41] = assay: Up regulation of LDLR gene expression in human HepG2 cells at 2 uM after 6 hrs in presence of simvastatin by qRT-PCR analysis; assay type: functional, cell-based
# [42] = Cmax in C57BL/6 mouse liver at 10 mg/kg, ip administered as single dose by mass spectrometry; assay type: ADME, organism-based; parameters: dose 10 mg/kg, route intraperitoneal
# HepG2 [43] = assay: Down regulation of HMGCS1 gene expression in human HepG2 cells at 1 uM measured after 24 hrs by transcriptional profiling analysis; assay type: functional, cell-based
# HepG2 [44] = assay: Up regulation of FOS expression in human HepG2 cells at 1 uM measured after 6 hrs by transcriptional profiling analysis; assay type: functional, cell-based
# HepG2 [45] = assay: Up regulation of EGR1 expression in human HepG2 cells at 1 uM measured after 6 hrs by transcriptional profiling analysis; assay type: functional, cell-based
# HepG2 [46] = assay: Down regulation of LSS gene expression in human HepG2 cells at 1 uM measured after 24 hrs by transcriptional profiling analysis; assay type: functional, cell-based
# HepG2 [47] = assay: Up regulation of PCSK9 gene expression in human HepG2 cells at 2 uM after 24 hrs in presence of atorvastatin by qRT-PCR analysis; assay type: functional, cell-based
# [48] = Tmax in C57BL/6 mouse plasma at 10 mg/kg, ip administered as single dose by mass spectrometry; assay type: ADME, organism-based
# HepG2 [49] = assay: Up regulation of TRIB1 gene expression in human HepG2 cells measured after 6 hrs by qRT-PCR analysis relative to control; assay type: functional
# [50] = Half life in C57BL/6 mouse liver at 10 mg/kg, ip administered as single dose by mass spectrometry; assay type: ADME, organism-based
# HepG2 [51] = assay: Down regulation of PCSK9 expression in human HepG2 cells after 24 hrs by ELISA; assay type: functional, cell-based
# HepG2 [52] = assay: Down regulation of DGAT1 gene expression in human HepG2 cells at 1 uM measured after 24 hrs by transcriptional profiling analysis; assay type: functional, cell-based
# HepG2 [53] = assay: Up regulation of TRIB1 expression in human HepG2 cells at 1 uM measured after 6 to 24 hrs by transcriptional profiling analysis; assay type: functional, cell-based
# [54] = Drug uptake in C57BL/6 mouse at 15 to 45 mg/kg, ip administered as single dose measured at 8 to 12 hrs post dose by mass spectrometry; assay type: ADME, organism-based; settings: in vivo
# [55] = Toxicity in C57BL/6 mouse at 15 to 45 mg/kg, ip administered as single dose measured over 24 hrs; assay type: organism-based; settings: in vivo
# [56] = Solubility of the compound in 1% DMSO/phosphate buffered saline at pH 7.4 incubated for 18 hrs under shaking condition by UPLC/MS analysis; assay type: physicochemical
compound,measurement,setting,value
CN1C(=O)c2cc(NC(=O)c3ccc(C(F)(F)F)cc3)ccc2OC[C@@H]2O[C@H](CC(=O)NC3Cc4ccccc4C3)CC[C@@H]21,Activity,HepG2 [1],Active
same,Vz,[2],23.3 L/kg
same,Activity,HepG2 [3],Active
same,Activity,HepG2 [4],Active
same,half-life,[5],1.63 h
same,Tmax,[6],4.8 min
same,Activity,HepG2 [7],Active
same,Activity,HepG2 [8],Active
same,Activity,HepG2 [9],inactive
same,Activity,HepG2 [10],Active
same,Cmax,[11],437 ng/mL
same,EC50,HepG2 [12],230 nM
same,EC50,HepG2 [13],430 nM
same,AUC,[14],1010 µg/L/h
same,Activity,HepG2 [15],Active
same,EC50,HepG2 [16],240 nM
same,Activity,HepG2 [17],Active
same,Activity,HepG2 [18],Active
same,Activity,HepG2 [19],inactive
same,Activity,HepG2 [20],Active
same,CL/F,[21],165 mL/min/kg
same,Activity,HepG2 [22],Active
same,"remaining at 1 h, 1 µM",[23],0%
same,Activity,HepG2 [24],Active
same,max activation,HepG2 [25],4.8
same,Activity,HepG2 [26],Active
same,Activity,HepG2 [27],inactive
same,fraction unbound,[28],0.01
same,AUC,[29],11558 µg/L/h
same,Activity,HepG2 [30],Active
same,fold change (FC),[31],2
same,EC50,HepG2 [32],490 nM
same,fold change (FC),[33],2
same,Vz,[34],2.81 L/kg
same,Activity,HepG2 [35],Active
same,Activity,HepG2 [36],Active
same,Activity,HepG2 [37],Active
same,Activity,HepG2 [38],Active
same,Activity,HepG2 [39],Active
same,Activity,HepG2 [40],Active
same,Activity,HepG2 [41],Active
same,Cmax,[42],4660 ng/mL
same,Activity,HepG2 [43],Active
same,Activity,HepG2 [44],Active
same,Activity,HepG2 [45],Active
same,Activity,HepG2 [46],Active
same,Activity,HepG2 [47],inactive
same,Tmax,[48],1 h
same,max activation,HepG2 [49],4.7
same,half-life,[50],2.25 h
same,Activity,HepG2 [51],Active
same,Activity,HepG2 [52],Active
same,Activity,HepG2 [53],Active
CC(C)COC(=O)NC[C@@H]1CC[C@H]2[C@H](COc3ccc(NC(=O)c4ccc(C(F)(F)F)cc4)cc3C(=O)N2C)O1,Vz,[2],4.48 L/kg
same,half-life,[5],1.12 h
same,Tmax,[6],4.8 min
same,Cmax,[11],2310 ng/mL
same,EC50,HepG2 [13],80 nM
same,AUC,[14],3616 µg/L/h
same,EC50,HepG2 [16],60 nM
same,CL/F,[21],46.2 mL/min/kg
same,"remaining at 1 h, 1 µM",[23],28%
same,max activation,HepG2 [25],3.7
same,Drug uptake,[54],Active
same,Activity,[55],Non-Toxic
same,fraction unbound,[28],0.01
same,AUC,[29],16803 µg/L/h
same,EC50,HepG2 [32],170 nM
same,Vz,[34],0.99 L/kg
same,Cmax,[42],13100 ng/mL
same,Tmax,[48],0.5 h
same,max activation,HepG2 [49],5.8
same,half-life,[50],1.16 h
same,solubility kinetic at 18 h,[56],7 µM
